Consider 4 compounds from paper PMC12214158, “Structure–activity relationship of ^18F-labeled PD-L1-targeting small molecule ligands: impact of radiolabeling strategy on affinity and in vivo performance” (EJNMMI Radiopharmacy and Chemistry, 2025).

The structures appear in SMILES notation.

The target in one data set is T1, human PD-L1 (Homo sapiens, UniProt Q9NZQ7).
T1 construct: expressed in transfected cells; host or cells: PC3 cells (human prostate carcinoma) transduced to overexpress human PD-L1
The data set is described as follows: Competition binding assay against [^64Cu]Cu-1 on PC3 PD-L1 overexpressing cells. Particulars: against [^64Cu]Cu-1 (30 nM), 14 dilutions 1 µM–120 pM, n = 2 from triplicates, read-out: Ki (inhibitory constant from competition binding assay). How it is done: Prior to competition binding experiments, cells were detached with 0.05% Trypsin–EDTA (Gibco, USA), trypsinized and counted (CASY1 cell counter, Schaerfe System, Reutlingen, Germany). Cells were then diluted in medium to ~ 320,000 cells/mL and seeded to 48 well plates (Falcon Multiwell #353078, ThermoFisher, Karlsruhe, Germany) for at least one day.
For the determination of inhibitory constant (Ki), competition binding experiments were conducted in a minimum of two independent experiments, with each data point formed from triplicates. For this purpose, all described compounds competed with a previously reported biphenyl-based PD-L1 small molecule radioligand (Krutzek et al. [2023b]).
Human PD-L1 transduced PC3 cells were grown under conditions described above. For the experiments, plates were allowed to reach room temperature followed by cooling on ice (each 15 min). 200 µL of assay buffer (PBS) replaced the culture. For each compound, total binding (TB) of the radioligand was determined, along with […] of BMS-1166 (synthesized according to reference (Guzik et al. [2017]) (dissolved in DMSO, resulting in 0.03% v/v) for estimation of nonspecific binding (NSB).
Incubation for 90 min followed, wells were then washed with ice-cold assay buffer (3 washes) and cells subjected to lysis (500 µL of 0.1 M NaOH + 1% SDS). The radioactivity of 400 µL lysate was assessed via a gamma counter (Perkin Elmer Wizard 1480). Binding to polystyrene was determined on an extra plate without any cells under identical conditions. Activity and therefore concentration of the radioligand stock solution was confirmed via 50 µL samples. Data was corrected for radioactive decay to a reference time (end of radiolabeling). The protein content of lysates from a control plate (seeded from the same cell suspension, incubated under identical conditions) was quantified using a BCA assay, and the mean value (µg/mL) was employed for this specific dataset. Via mean protein content and molar activity, final values (pmol/mg protein) were computed from the CPM measurements. Ki was fitted via a One site model (GraphPad Prism 10), using the previously determined KD for the radiolabeled compound and the actual concentration of the radioligand.

A short description of data set [1]: Proteolytic stability in human serum, radio-HPLC. The data set is classed as in vitro ADME. Particulars: 37 °C, all time points up to 4 h. How it is done:
With both ^18F-ligands in hand, distribution coefficients (log D7.4) were determined using the shake flask method with n-octanol and PBS. The introduction of three hydrophilizing units led to log D7.4 values of − 2.54 ± 0.02 for [^18F]F-2 and − 2.68 ± 0.08 for [^18F]F-3, which indicates moderate hydrophilicity. Subsequently, proteolytic stability was investigated (Supplementary Fig. S68 and S69), by incubating in human serum at 37 °C for up to 4 h. Before incubation (0 h) and 0.5, 1, 2 and 4 h after incubation, an aliquot was taken, and serum proteins were precipitated. Analysis of radiotracers was performed with radio-HPLC, showing the intact radiotracers (0 h) at 7.0 ([^18F]F-2) and 7.7 min ([^18F]F-3). At all time points, radiotracers remained intact up to 99%.
Subsequently, proteolytic stability was investigated (Supplementary Fig. S70 and S71), by incubating in human serum at 37 °C for up to 4 h. Before incubation (0 h) and 0.5, 1, 2 and 4 h after incubation, an aliquot was taken, and serum proteins were precipitated. Analysis of radiotracers was performed with radio-HPLC, showing the intact radiotracers (0 h) at 7.9 (Al[^18F]F-36) and 8.1 min (Al[^18F]F-37). After 4 h, both radiotracers remained intact up to 91% and 92%, respectively.
For proteolytic stability studies, a solution of the radiolabeled compound was diluted with human serum in a ratio of 1:10. […]

In data set [2] the test system is NMRI-nude mice bearing PC3 PD-L1 and PC3 mock tumors. The data set is described as follows: Small animal PET in mice bearing PC3 PD-L1 and PC3 mock tumors. It is filed as in vivo. The settings on record: for SUVmax PC3 PD-L1 tumor / SUVmax PC3 mock tumor / Uptake (SUVmean) Bone (spine) / Uptake (SUVmean) Gall bladder / Uptake (SUVmean) Heart / Uptake (SUVmean) Liver / Uptake (SUVmean) PC3 PD-L1 tumor / Uptake (SUVmean) PC3 mock tumor / Uptake (SUVmean) Small intestine: 1–2 h p.i.; for Uptake (SUVmean) Bone (spine) / Uptake (SUVmean) Gall bladder / Uptake (SUVmean) Heart / Uptake (SUVmean) Liver / Uptake (SUVmean) PC3 PD-L1 tumor / Uptake (SUVmean) PC3 mock tumor / Uptake (SUVmean) Small intestine: mean; for transition from liver and gall bladder into the intestine: time-activity curves. How it is done: Male athymic NMRI-nude mice (Rj:NMRI-Foxn1nu, Charels River, Germany) aged 8 to 16 weeks were used to investigate pharmacokinetics and tumor uptake. For subcutaneous injection of cells, general anesthesia was induced with ~ 10% desflurane (Baxter, Deerfield, IL, USA) in 30 vol% oxygen + air at controlled 37 °C. Mice were injected with 3–5 × 10^6 PC3 PD-L1 and PC3 mock cells (in 50 µL PBS + 50 µL Matrigel, Corning, Glendale, CA, USA) into the right and left thigh, respectively. Tumor growth was monitored (3 times per week) using calipers, and animals enrolled in PET scans once tumors reached 7 mm.
Under general anesthesia, PET and X-ray computed tomography (CT) scans were conducted using a small animal PET/CT scanner (nanoScan PET/CT, Mediso, Budapest, Hungary), with four animals imaged simultaneously. CT images were used for attenuation correction and anatomical referencing.
The radiotracer candidates were diluted in 200–300 µL sterile 0.9% NaCl (and up to 2% EtOH, pH 6–7) and intravenously delivered over 30 s through a lateral tail vein catheter. PET acquisition (2 h p.i.) was started simultaneously with the administration. Injected activities were between 5 and 12 MBq (with molar activities 5–18 GBq/µmol). If animals were subjected to an additional scan later, the minimum time in between was > 3 days to allow decay and full metabolization.
The acquired three-dimensional list mode data were sorted and binned within a 400–600 keV energy window, forming 35 time frames (15 × 10 s, 5 × 30 s, 5 × 60 s, 4 × 300 s, 3 × 600 s, 3 × 1200 s). Reconstruction was performed with Mediso’s Tera-Tomo™ 3D algorithm, with a voxel size of 0.4 mm and corrections for decay, scatter, and attenuation. The images were subjected to post-processing and analysis using Rover software (ABX GmbH, Radeberg, Germany), and are shown as maximum intensity projections (MIPs) at the specified timepoint and scaling.
Three-dimensional volumes of interest were defined using fixed thresholding at 35–40% of the maximum measured intensity. Standardized uptake values (SUV = [MBq detected activity/mL tissue]/[MBq injected activity/g body weight], in mL/g) were then calculated within the selected volumes of interest, e.g. PD-L1 and mock tumors, as well as other relevant and metabolizing organs.

A further data set addresses T2, PC3 PD-L1 cells (Homo sapiens, UniProt Q9NZQ7).
T2 construct: expressed in transfected cells; host or cells: PC3 cells (human prostate carcinoma) transduced to overexpress human PD-L1
The data set is described as follows: Real-time radioligand binding (LigandTracer) to PC3 PD-L1 cells. Particulars: room temperature. How it is done:
The LigandTracer system (Ridgeview Instruments AB, Uppsala, Sweden) allows assessing the binding kinetics (association rate constant ka and dissociation rate constant kd) and therefore dissociation constant (KD) of radiolabeled compounds. For that purpose, target-positive PC3 PD-L1 cells are seeded to a quadrant of a petri dish (Thermo Scientific Nunclon Delta #150350). In our initial tests, 1.2x10^6 cells were seeded one day prior to the experiment.
The petri dish is then placed in the instrument, the culture medium removed and replaced with 3 mL CO2-independent medium (Gibco #18045088, ThermoFisher Germany). In the LigandTracer system, the dish rotates on an inclined base, with cells in medium (3 mL) located on one side (target), while no cells (background) are located on the other side. Radioactivity (counts per second) is then constantly measured for 30 seconds on either side. This allows continuous measurements of two (or more) alternating parts of the dish for bound radioactivity, with target – background indicating binding over time.
All experiments were performed at room temperature. Association of compounds was observed following incubation with two increasing concentrations of the tracer. The tracer-containing solution was then exchanged for fresh medium, to allow observation of dissociation for at least 120 min.

T1 sequence (Q9NZQ7 19-290): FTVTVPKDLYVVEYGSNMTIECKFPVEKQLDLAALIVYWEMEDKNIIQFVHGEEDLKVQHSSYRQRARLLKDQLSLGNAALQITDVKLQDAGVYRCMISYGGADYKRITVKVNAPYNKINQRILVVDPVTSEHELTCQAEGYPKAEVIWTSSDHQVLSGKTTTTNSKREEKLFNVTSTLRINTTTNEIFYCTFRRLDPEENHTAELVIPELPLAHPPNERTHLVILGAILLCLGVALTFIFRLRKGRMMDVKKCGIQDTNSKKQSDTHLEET
T2 sequence (Q9NZQ7 19-290): as above

One may read the Ki as the dissociation constant of the complex between target and ligand, obtained from inhibition or displacement. `Cc1c(COc2cc(OCc3cncc(S(C)(=O)=O)c3)c(CN(C)C(=O)[C@H](CS(=O)(=O)O)NC(=O)[C@H](CS(=O)(=O)O)NC(=O)CCP(=O)(O)O)cc2Cl)cccc1-c1cccc(OCc2cn(CCOCCOCC[18F])nn2)c1C` [[^18F]F-3]: the Ki at human PD-L1 is 475 nM. Further, the radiotracer remaining intact result in data set [1] is reported as “up to 99%”. Further, in data set [2], the “bone uptake (sign of defluorination)” value was “lacked a discernible bone uptake”; the excretion route result is “exclusively excreted via the hepatobiliary route”; the “target-specific tumor uptake, PC3 PD-L1 versus PC3 mock” value is “marked absence of target-specific uptake”; the “SUVmax PC3 PD-L1 tumor” value was determined as 0.30. For the same compound, in data set [2], the “SUVmax PC3 mock tumor” value is 0.34, the “Uptake (SUVmean) Bone (spine)” value is 0.13, the “Uptake (SUVmean) Gall bladder” value came out at 150.54 and the “Uptake (SUVmean) Heart” value is on record as 0.20. In addition, in data set [2], the “Uptake (SUVmean) Liver” value is 0.70, the “Uptake (SUVmean) PC3 PD-L1 tumor” value was 0.17, the “Uptake (SUVmean) PC3 mock tumor” value worked out at 0.17 and the “Uptake (SUVmean) Small intestine” value turned out to be 105.54. The “transition from liver and gall bladder into the intestine” value in data set [2] is 10 to 15 min. The “real-time radioligand binding, bound radioactivity over time” value on PC3 PD-L1 cells was “almost no binding takes place and no”.
`Cc1c(COc2cc(OCc3cncc(S(C)(=O)=O)c3)c(CN(C)C(=O)[C@H](CS(=O)(=O)O)NC(=O)[C@H](CS(=O)(=O)O)NC(=O)CCP(=O)(O)O)cc2Cl)cccc1-c1cccc(OCc2cn([C@@H]3O[C@H](CF)[C@@H](O)[C@H](O)[C@H]3O)nn2)c1C` [Compound 2, (R)−3-((5-Chloro-4-((3'-((1-((2R,3R,4S,5S,6S)−6-(fluoromethyl)−3,4,5-trihydroxytetrahydro-2H-pyran-2-yl)−1H-1,2,3-triazol-4-yl)methoxy)−2,2'-dimethyl-[1,1'-biphenyl]−3-yl)methoxy)−2-((5-(methylsulfonyl)pyridin-3-yl)methoxy)benzyl)(methyl)amino)−3-oxo-2-((R)−2-(3-phosphonopropanamido)−3-sulfopropanamido)propane-1-sulfonic acid]: the Ki on human PD-L1 was determined as 189 nM.
Turning to `Cc1c(COc2cc(OCc3cncc(S(C)(=O)=O)c3)c(CN(C)C(=O)[C@H](CS(=O)(=O)O)NC(=O)[C@H](CS(=O)(=O)O)NC(=O)CCP(=O)(O)O)cc2Cl)cccc1-c1cccc(OCc2cn([C@@H]3O[C@H](C[18F])[C@@H](O)[C@H](O)[C@H]3O)nn2)c1C` [[^18F]F-2], the Ki on human PD-L1 was 189 nM. Further, the radiotracer remaining intact entry in data set [1] was “up to 99%”. In data set [2], the “bone uptake (sign of defluorination)” value was “lacked a discernible bone uptake”; the excretion route entry is reported as “exclusively excreted via the hepatobiliary route”; the “target-specific tumor uptake, PC3 PD-L1 versus PC3 mock” value is “marked absence of target-specific uptake”; the “SUVmax PC3 PD-L1 tumor” value is reported as 0.66. Moreover, in data set [2], the “SUVmax PC3 mock tumor” value turned out to be 0.77, the “Uptake (SUVmean) Bone (spine)” value is 0.25, the “Uptake (SUVmean) Gall bladder” value amounted to 46.45 and the “Uptake (SUVmean) Heart” value was found to be 0.86. Further, in data set [2], the “Uptake (SUVmean) Liver” value is given as 1.61, the “Uptake (SUVmean) PC3 PD-L1 tumor” value was 0.34, the “Uptake (SUVmean) PC3 mock tumor” value is 0.39 and the “Uptake (SUVmean) Small intestine” value amounted to 114.55. Besides, the “transition from liver and gall bladder into the intestine” value in data set [2] is 10 to 15 min.
Regarding `Cc1c(COc2cc(OCc3cncc(S(C)(=O)=O)c3)c(CN(C)C(=O)[C@H](CS(=O)(=O)O)NC(=O)[C@H](CS(=O)(=O)O)NC(=O)CCP(=O)(O)O)cc2Cl)cccc1-c1cccc(OCc2cn(CCOCCOCCF)nn2)c1C` [Compound 3, (R)−3-((5-Chloro-4-((3'-((1-(2-(2-(2-fluoroethoxy)ethoxy)ethyl)−1H-1,2,3-triazol-4-yl)methoxy)−2,2'-dimethyl-[1,1'-biphenyl]−3-yl)methoxy)−2-((5-(methylsulfonyl)pyridin-3-yl)methoxy)benzyl)(methyl)amino)−3-oxo-2-((R)−2-(3-phosphonopropanamido)−3-sulfopropanamido)propane-1-sulfonic acid], the Ki on human PD-L1 was 475 nM.
